Results from the supplement of paper PMC10307832.

Columns and labels:
Experiment in all cases: relative viability (nuclei count vs DMSO), 5 days (fraction); higher = more cells survive
Doramapimod + Tozasertib = compound: Cc1ccc(-n2nc(C(C)(C)C)cc2NC(=O)Nc2ccc(OCCN3CCOCC3)c3ccccc23)cc1 [Doramapimod] + Cc1cc(Nc2cc(N3CCN(C)CC3)nc(Sc3ccc(NC(=O)C4CC4)cc3)n2)n[nH]1 [Tozasertib] (partner 0.1 µM)
How it was run: (§1)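 Medians of duplicate plates are given as relative viability. That measure is the nuclei count in treated wells divided by the count in vehicle wells. Counts were taken on 4× images of lung cancer cell lines in 1536-well plates, 5 days after pin-tool dosing the day after seeding with one drug alone or a fixed anchor-drug dose plus five library-drug doses (not always all listed) in √10 steps.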

RAF265 + Decitabine = compound: Cn1c(Nc2ccc(C(F)(F)F)cc2)nc2cc(Oc3ccnc(-c4ncc(C(F)(F)F)[nH]4)c3)ccc21 [RAF265] + Nc1ncn([C@H]2C[C@H](O)[C@@H](CO)O2)c(=O)n1 [Decitabine] (partner 2 µM)
How it was run: as §1

RAF265 + Bortezomib = compound: Cn1c(Nc2ccc(C(F)(F)F)cc2)nc2cc(Oc3ccnc(-c4ncc(C(F)(F)F)[nH]4)c3)ccc21 [RAF265] + CC(C)C[C@H](NC(=O)[C@H](Cc1ccccc1)NC(=O)c1cnccn1)B(O)O [Bortezomib] (partner 0.002 µM)
How it was run: as §1

Doramapimod + Dasatinib = compound: Cc1ccc(-n2nc(C(C)(C)C)cc2NC(=O)Nc2ccc(OCCN3CCOCC3)c3ccccc23)cc1 [Doramapimod] + Cc1nc(Nc2ncc(C(=O)Nc3c(C)cccc3Cl)s2)cc(N2CCN(CCO)CC2)n1 [Dasatinib] (partner 0.075 µM)
How it was run: as §1

## UMC-11
Doramapimod + Tozasertib; first compound 0.02 µM
  relative viability: 0.2
Doramapimod + Tozasertib; first compound 0.06325 µM
  relative viability: 0.174
Doramapimod + Tozasertib; first compound 0.2 µM
  relative viability: 0.199
Doramapimod + Tozasertib; first compound 0.6325 µM
  relative viability: 0.195
Doramapimod + Tozasertib; first compound 2 µM
  relative viability: 0.205
RAF265 + Decitabine; first compound 0.01 µM
  relative viability: 0.621
RAF265 + Decitabine; first compound 0.03162 µM
  relative viability: 0.404
RAF265 + Decitabine; first compound 0.1 µM
  relative viability: 0.621
RAF265 + Decitabine; first compound 0.3162 µM
  relative viability: 0.604
RAF265 + Decitabine; first compound 1 µM
  relative viability: 0.363
RAF265 + Bortezomib; first compound 0.01 µM
  relative viability: 0.624
RAF265 + Bortezomib; first compound 0.03162 µM
  relative viability: 0.724
RAF265 + Bortezomib; first compound 0.1 µM
  relative viability: 0.758
RAF265 + Bortezomib; first compound 0.3162 µM
  relative viability: 0.745
RAF265 + Bortezomib; first compound 1 µM
  relative viability: 0.537
Doramapimod + Dasatinib; first compound 0.02 µM
  relative viability: 0.435
Doramapimod + Dasatinib; first compound 0.06325 µM
  relative viability: 0.447
Doramapimod + Dasatinib; first compound 0.2 µM
  relative viability: 0.46
Doramapimod + Dasatinib; first compound 0.6325 µM
  relative viability: 0.52
Doramapimod + Dasatinib; first compound 2 µM
  relative viability: 0.368
